According to patent US9617289B2, “RSV antiviral compounds” (JANSSEN R&D IRELAND, priority 2012, dated 2017):
Read-outs that look alike come from different tables or passages of the source.

Test system: rgRSV224 virus
Test: Antiviral activity: inhibition of rgRSV224 (GFP-expressing RSV) replication in HeLa cells
Assay type: cell-based, respiratory syncytial virus
Details: human respiratory syncytial virus, HeLa, 72 h
Method in brief: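 HeLa cells infected with GFP-expressing rgRSV224 at MOI 0.02 alongside 4-fold compound dilutions in duplicate (0.5% DMSO). Incubated 3 days at 37 °C; EC50 taken as 50% inhibition of GFP expression by laser microscopy. CC50 measured in parallel uninfected cells by ATP content after 3 days; SI = CC50/EC50.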

[1] = read-out: pEC50, rgRSV224 (MOI=0.02) in HeLa cells, GFP expression three days post-virus exposure (converted)
[2] = read-out: RSV-wt_pEC50, rgRSV224 (MOI=0.02) in HeLa cells, GFP expression three days post-virus exposure

| SMILES | EC50 [1] [pM] | EC50 [2] [pM] |
| --- | --- | --- |
| CC(C)(C)OC(=O)N1CCC2(CC1)C(=O)N(Cc1cc3nc(Cl)ccc3n1CCCCF)c1cnccc12 [Compound 69, tert-butyl 1′-((5-chloro-1-(4-fluorobutyl)-1H-pyrrolo[3,2-b]-pyridin-2-yl)methy)-2′-oxo-1′,2′-dihydrospiro[piperidine-4,3′-pyrrolo[2,3-c]pyridine]-1-carboxylate] | 5010 |  |
| CC(C)(O)C(=O)N1CC2(C1)C(=O)N(Cc1cc3cc(Cl)ccc3n1CCCS(C)(=O)=O)c1ccccc12 [Compound 152, 1′-({5-Chloro-1-[3-(methylsulfonyl)propyl]-1H-indol-2-yl}methyl)-1-(2-hydroxy-2-methylpropanoyl)spiro[azetidine-3,3′-indol]-2′(1′H)-one] |  | 1580 |
| CS(=O)(=O)CCCn1c(CN2C(=O)C3(CCN(C(=O)c4ccncc4)CC3)c3cc(Br)ccc32)nc2cc(Cl)ccc21 [Compound 22, 5-bromo-1-((5-chloro-1-(3-(methylsulfonyl)propyl)-1H-benzo[d]imidazol-2-yl)methyl)-1′-isonicotinoylspiro-[indoline-3,4′-piperidin]-2-one] | 7940 |  |
| O=C1N(Cc2cc3cc(Cl)ccc3n2CCCCF)c2cnccc2C12CCNCC2 [Compound 162] |  | 4570 |
| CC(C)(O)C(=O)N1CCC2(CC1)C(=O)N(Cc1cc3cc(Cl)ccc3n1CCCS(C)(=O)=O)c1cnccc12 [Compound 74, 1′-((5-chloro-1-(3-(methylsulfonyl)propyl)-1H-indol-2-yl)-methyl)-1-(2-hydroxy-2-methylpropanoyl)spiro[piperidine-4,3′-pyrrolo[2,3-c]pyridin]-2′(1′H)-one] | 200 |  |
| CS(=O)(=O)CCCn1c(CN2C(=O)C3(CCN(S(=O)(=O)c4ccc5nccnc5c4)CC3)c3ccncc32)nc2cc(Cl)ccc21 [Compound 13, 1′-((5-chloro-1-(3-(methylsulfonyl)propyl)-1H-benzo[d]-imidazol-2-yl)methyl)-1-(quinoxalin-6-ylsulfonyl)spiro-[piperidine-4,3′-pyrrolo[2,3-c]pyridin]-2′(1′H)-one] | 50.1 |  |
| N#CCCCn1c(CN2c3ccccc3[C@]3(C[C@H](NC(=O)OC4CC4)C3)C2=O)nc2cc(Cl)ccc21 [Compound 125, cyclopropyl ((1s,3s)-1′-((5-chloro-1-(3-cyanopropyl)-1H-benzo[d]imidazol-2-yl)methyl)-2′-oxospiro[cyclobutane-1,3′-indolin]-3-yl)carbamate] |  | 288 |
| CC(C)(O)CN1CCC2(CC1)C(=O)N(Cc1nc3cc(Cl)ccc3n1CCCS(C)(=O)=O)c1ccc(Cl)cc12 [Compound 25, 5-chloro-1-((5-chloro-1-(3-(methylsulfonyl)propyl)-1H-benzo[d]imidazol-2-yl)methyl)-1-(2-hydroxy-2-methylpropyl)spiro[indoline-3,4′-piperidin]-2-one] | 31600 |  |
| CS(=O)(=O)CCCn1c(CN2C(=O)C3(CCNCC3)c3ccncc32)cc2cc(Cl)ccc21 [Compound 2, 1′-({5-chloro-1-[3-(methylsulfonyl)propyl]-1H-indol-2-yl}methyl)spiro[piperidine-4,3′-pyrrolo[2,3-c]pyridin]-2′(1′H)-one] | 50100 |  |
| CC(C)(O)C(=O)N1CCC2(CC1)C(=O)N(Cc1cc3cc(Cl)ccc3n1CCCCO)c1cnccc12 [Compound 155, 1′-{[5-Chloro-1-(4-hydroxybutyl)-1H-indol-2-yl]methyl}-1 - (2-hydroxy-2-methylpropanoyl)spiro[piperidine-4,3′-pyrrolo[2,3-c]pyridin]-2′(1′H)-one] |  | 170 |
| CS(=O)(=O)CCCn1c(CN2C(=O)C3(CCNCC3)c3ccccc32)nc2cc(Cl)ccc21 [Compound 21, 1-((5-chloro-1-(3-(methylsulfonyl)propyl)-1H-benzo[d]-imidazol-2-yl)methyl)spiro[indoline-3,4′-piperidin]-2-one] | 5010 |  |
| O=C1N(Cc2nc3cc(Cl)ccc3n2CCCC(F)(F)F)c2ccccc2C12CNC2 [Compound 46, 1′-((5-chloro-1-(4,4,4-trifluorobutyl)-1H-benzo[d]imidazol-2-yl)methyl)spiro[azetidine-3,3-indolin]-2′-one] | 631 |  |
| CC(C)(C)OC(=O)N1CCC2(CC1)C(=O)N(Cc1c(C(N)=O)c3cc(Cl)ccc3n1CCCCF)c1cnccc12 [Compound 156, tert-Butyl 1′-{[3-carbamoyl-5-chloro-1-(4-fluorobutyl)-1H-indol-2-yl]methyl}-2′-oxo-1′,2′-dihydro-1H-spiro[piperidine-4,3′-pyrrolo[2,3-c]pyridine]-1-carboxylate] |  | 67.6 |
| CS(=O)(=O)CCCn1c(CN2C(=O)C3(CCN(c4ccc(Cl)nn4)CC3)c3cc(Br)ccc32)nc2cc(Cl)ccc21 [Compound 20, 5-bromo-1-((5-chloro-1-(3-(methylsulfonyl)propyl)-1H-benzo[d]imidazol-2-yl)methyl)-1′-(6-chloropyridazin-3-yl)spiro[indoline-3,4′-piperidin]-2-one] | 3980 |  |
| CC(C)(C)OC(=O)N1CCC2(CC1)C(=O)N(Cc1nc3cc(Br)ccc3n1CCCS(C)(=O)=O)c1ccccc12 [Compound 17, tert-butyl 1-((5-bromo-1-(3-(methylsulfonyl)propyl)-1H-benzo[d]imidazol-2-yl)methyl)-2-oxospiro[indoline-3,4′-piperidine]-1′-carboxylate] | 316 |  |
| COC(=O)N1CCC2(CC1)C(=O)N(Cc1nc3cc(Cl)ccc3n1CCCC#N)c1cnccc12 [Compound 98, Methyl 1′-{[5-chloro-1-(3-cyanopropyl)-1H-benzimidazol-2-yl]methyl}-2′-oxo-1′,2′-dihydro-1H-spiro[piperidine-4,3′-pyrrolo[2,3-c]pyridine]-1-carboxylate] |  | 67.6 |
| N#CCCCn1c(CN2C(=O)C3(CCN(S(=O)(=O)c4cccs4)CC3)c3ccncc32)cc2cc(Cl)ccc21 [Compound 96, 4-(5-Chloro-2-{[2′-oxo-1-(thiophen-2-ylsulfonyl)spiro-[piperidine-4,3′-pyrrolo[2,3-c]pyridin]-1′(2′H)-yl]methyl}-1H-indol-1-yl)butanenitrile] |  | 427 |
| CS(=O)(=O)CCCn1c(CN2C(=O)C3(CCN(S(=O)(=O)c4ccc(C#N)cc4)CC3)c3ccccc32)nc2cc(Cl)ccc21 [Compound 18, 4-(1-((5-chloro-1-(3-(methylsulfonyl)propyl)-1H-benzo[d]-imidazol-2-yl)methyl)-2-oxospiro[indoline-3,4′-piperidine]-1′-ylsulfonyl) benzonitrile] | 1260 |  |
| N#CCCCn1c(CN2C(=O)C3(CCN(S(N)(=O)=O)CC3)c3ccncc32)nc2cc(Cl)ccc21 [Compound 89, 1′-((5-chloro-1-(3-cyanopropyl)-1H-benzo[d]imidazol-2-yl)-methyl)-2′-oxo-1′,2′-dihydrospiro[piperidine-4,3′-pyrrolo-[2,3-c]pyridine]-1-sulfonamide] | 79.4 |  |
| CS(=O)(=O)CCCn1c(CN2C(=O)C3(CNC3)c3ccccc32)cc2cc(Cl)ccc21 [Compound 134, 1′-({5-Chloro-1-[3-(methylsulfonyl)propyl]-1H-indol-2-yl}methyl)spiro[azetidine-3,3′-indol]-2′(1′H)-one] |  | 2000 |
| CS(=O)(=O)CCCn1c(CN2C(=O)C3(CNC3)c3ccccc32)nc2cc(Cl)ccc21 [Compound 5, 1′-({5-chloro-1-[3-(methylsulfonyl)propyl]-1H-benzimidazol-2-yl}methyl)spiro[azetidine-3,3′-indol]-2′(1′H)-one] | 5010 |  |
| CNC(=O)O[C@H]1C[C@@]2(C1)C(=O)N(Cc1nc3cc(Cl)ccc3n1CCCC#N)c1ccccc12 [Compound 168, (1r,3r)-1′-((5-chloro-1-(3-cyanopropyl)-1H-benzo[d]imidazol-2-yl)methyl)-2′-oxospiro[cyclobutane-1,3′-indolin]-3-yl methylcarbamate] |  | 34.7 |
| CS(=O)(=O)CCCn1c(CN2c3ccccc3[C@]3(C[C@@H](OC(=O)N4CCOCC4)C3)C2=O)nc2cc(Cl)ccc21 [Compound 133, (1r,3r)-1′-((5-chloro-1-(3-(methylsulfonyl)propyl)-1H-benzo[d]imidazol-2-yl)methyl)-2′-oxospiro[cyclobutane-1,3′-indolin]-3-yl morpholine-4-carboxylate] |  | 141 |
| N#CCCCn1c(CN2C(=O)C3(CN(S(=O)(=O)C4CC4)C3)c3ccccc32)cc2cc(Cl)ccc21 [Compound 61, 4-(5-chloro-2-{[1-(cyclopropylsulfonyl)-2′-oxospiro-[azetidine-3,3′-indol]-1′(2′H)-yl]methyl}-1H-indol-1-yl)-butanenitrile] | 398 |  |
| N#CCCCn1c(CN2C(=O)C3(CN(C(=O)[C@@H](O)CO)C3)c3ccccc32)cc2cc(Cl)ccc21 (single isomer, unassigned) [Compound 129] |  | 355 |
| O=C(C(O)CO)N1CCC2(CC1)C(=O)N(Cc1cc3cc(Cl)ccc3n1CCCCF)c1cnccc12 (stereo not shown) [Compound 167, 1′-{[5-Chloro-1-(4-fluorobutyl)-1H-indol-2-yl]methyl}-1-(2,3-dihydroxypropanoyl)spiro[piperidine-4,3′-pyrrolo[2,3-c]pyridin]-2′(1′H)-one] |  | 123 |
| NC(=O)CCCn1c(CN2C(=O)C3(CNC3)c3ccccc32)nc2cc(Cl)ccc21 [Compound 100, 4-{5-Chloro-2-[(2′-oxospiro[azetidine-3,3′-indol]-1′(2′H)-yl)methyl]-1H-benzimidazol-1-yl}butanamide] |  | 263000 |
| CC(=O)N1CCC2(CC1)C(=O)N(Cc1nc3cc(Cl)ccc3n1CCCS(C)(=O)=O)c1cnccc12 [Compound 42, 1-acetyl-1′-((5-chloro-1-(3-(methylsulfonyl)propyl)-1H-benzo[d]imidazol-2-yl)methyl)spiro[piperidine-4,3′-pyrrolo-[2,3-c]pyridin]-2′(1′H)-one] | < 158 |  |
